According to ChEMBL document CHEMBL3045736, “Cobalt mediated ring contraction reaction of lapachol and initial antibacterial evaluation of naphthoquinones derived from lapachol” (2012):
Values after ≈ are worked out from the molar mass of the structure shown.

Experiments:
Assay type in all cases: functional
[1] = system: Staphylococcus aureus; experiment: Antibacterial activity against Staphylococcus aureus after 24 hr by p-iodonitrotetrazolium assay
[2] = system: Bacillus cereus; experiment: Antibacterial activity against Bacillus cereus after 24 hr by p-iodonitrotetrazolium assay
[3] = system: Escherichia coli; experiment: Antibacterial activity against Escherichia coli after 24 hr by p-iodonitrotetrazolium assay
[4] = system: Mycobacterium tuberculosis; experiment: Antimycobacterial activity against Mycobacterium tuberculosis by Bactec TB-460 assay

Row | Molecule | MIC [1] | MIC [2] | MIC [3] | MBC [4] | MIC [4]
1 | CC(=O)OC=CC1=C(O)C(=O)c2ccccc2C1=O | > 78.1 µg/mL | > 78.1 µg/mL | > 78.1 µg/mL | – | –
2 | CC(C)=CCC1(O)C(=O)c2ccccc2C1=O | 240 µM | > 78.1 µg/mL | > 78.1 µg/mL | 240 µM (≈ 55.2 µg/mL) | 120 µM (≈ 27.6 µg/mL)
3 | CC(C)(O[N+](=O)[O-])C1CC2=C(O1)C(=O)c1ccccc1C2=O (stereo not drawn) | 272 µM | > 78.1 µg/mL | > 78.1 µg/mL | 136 µM (≈ 41.3 µg/mL) | 34 µM (≈ 10.3 µg/mL)
4 | C=C(C)c1cc2c(o1)C(=O)c1ccccc1C2=O | 328 µM | > 78.1 µg/mL | 328 µM | 164 µM (≈ 39.1 µg/mL) | 41 µM (≈ 9.77 µg/mL)
5 | O=CCC1=C(O)C(=O)c2ccccc2C1=O | > 78.1 µg/mL | > 78.1 µg/mL | > 78.1 µg/mL | 723 µM (≈ 156 µg/mL) | 362 µM (≈ 78.2 µg/mL)
6 | C=C(C)C1CC2=C(O1)C(=O)c1ccccc1C2=O (stereo not drawn) [DEHYDROISO-ALPHA-LAPACHONE] | 326 µM | > 78.1 µg/mL | > 78.1 µg/mL | 81.4 µM (≈ 19.6 µg/mL) | 40.7 µM (≈ 9.77 µg/mL)
7 | NNC(=O)c1ccncc1 [ISONIAZID] | – | – | – | 1.75 µM (≈ 0.24 µg/mL) | 0.88 µM (≈ 0.121 µg/mL)
8 | CC(C)=CCC1=C(O)C(=O)c2ccccc2C1=O [LAPACHOL] | > 78.1 µg/mL | > 78.1 µg/mL | > 78.1 µg/mL | 646 µM (≈ 156 µg/mL) | 161 µM (≈ 39.1 µg/mL)
9 | CC1(C)CCC2=C(O1)c1ccccc1C(=O)C2=O [LAPACHONE] | 161 µM | 161 µM | 161 µM | 80.7 µM (≈ 19.6 µg/mL) | 20.2 µM (≈ 4.89 µg/mL)
10 | CC(=O)c1cc2c(o1)C(=O)c1ccccc1C2=O [NAPABUCASIN] | 326 µM | > 78.1 µg/mL | > 78.1 µg/mL | 163 µM (≈ 39.1 µg/mL) | 40.7 µM (≈ 9.77 µg/mL)
11 | GENTAMICIN | 7.2 µM | 3.6 µM | 3.6 µM | – | –
